Assay results published in PubChem BioAssay (NCI).
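Grown in 96-well plates, cells were treated for 48 hours with each compound at five concentrations. Insufficient inhibition: endpoint recorded as highest concentration tested. Here, GI50 denotes the concentration required for 50% inhibition of growth. TGI is the concentration that stops growth completely.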

Key:
Experiment in all cases: NCI-60 cell line screen, 48 h
786-0 renal = tested on: 786-0 renal
DU-145 prostate = tested on: DU-145 prostate
HCT-116 colon = tested on: HCT-116 colon
MDA-MB-231 breast = tested on: MDA-MB-231 breast
OVCAR-8 ovarian = tested on: OVCAR-8 ovarian
RXF 393 renal = tested on: RXF 393 renal
SK-MEL-5 melanoma = tested on: SK-MEL-5 melanoma
IGROV1 ovarian = tested on: IGROV1 ovarian
SW-620 colon = tested on: SW-620 colon
NCI-H226 lung = tested on: NCI-H226 lung

SMILES | GI50 (786-0 renal) | TGI (786-0 renal) | GI50 (DU-145 prostate) | TGI (DU-145 prostate) | GI50 (HCT-116 colon) | TGI (HCT-116 colon) | GI50 (MDA-MB-231 breast) | TGI (MDA-MB-231 breast) | GI50 (OVCAR-8 ovarian) | TGI (OVCAR-8 ovarian) | GI50 (RXF 393 renal) | TGI (RXF 393 renal) | GI50 (SK-MEL-5 melanoma) | TGI (SK-MEL-5 melanoma) | TGI (IGROV1 ovarian) | TGI (SW-620 colon) | TGI (NCI-H226 lung) | GI50 (IGROV1 ovarian) | GI50 (NCI-H226 lung) | GI50 (SW-620 colon)
CCCCN(CCCC)c1cc(C(=O)CCCCCN)c2ccccc2n1 | 1.83 µM | 3.27 µM | 1.89 µM | 3.41 µM | 1.78 µM | 3.16 µM | 1.62 µM | 3.09 µM | 2.03 µM | 4.61 µM | 1.53 µM | 2.89 µM | 1.58 µM | 2.92 µM | – | – | – | – | – | –
CCOC(=O)/C(=C/c1cc(OC)ccc1OC)CC(=O)O | – | > 31.6 µM | – | – | – | > 100 µM | – | – | – | > 100 µM | – | > 100 µM | – | > 100 µM | > 100 µM | > 100 µM | – | – | – | –
C=CCOC1=C2CC[C@H](O)[C@@]2(C)CCC1=O | – | > 100 µM | – | – | – | > 100 µM | – | – | – | > 100 µM | – | > 100 µM | – | > 100 µM | > 100 µM | > 100 µM | > 100 µM | – | – | –
Nc1ccn(C2OC(CO[P+](=O)OC3C(CO[P+](=O)OC4C(CO[P+](=O)OC5C(CO[P+](=O)OC6C(CO[P+](=O)OC7C(CO[P+](=O)OC8C(CO[P+](=O)OC9C(CO[P+](=O)OC%10C(CO[P+](=O)OC%11C(CO)OC(n%12ccc(N)nc%12=O)C%11(F)F)OC(n%11ccc(N)nc%11=O)C%10(F)F)OC(n%10ccc(N)nc%10=O)C9(F)F)OC(n9ccc(N)nc9=O)C8(F)F)OC(n8ccc(N)nc8=O)C7(F)F)OC(n7ccc(N)nc7=O)C6(F)F)OC(n6ccc(N)nc6=O)C5(F)F)OC(n5ccc(N)nc5=O)C4(F)F)OC(n4ccc(N)nc4=O)C3(F)F)C(O)C2(F)F)c(=O)n1 (stereo not drawn) | 0.0605 µM | > 100 µM | 0.0239 µM | 0.13 µM | – | > 100 µM | 0.522 µM | > 100 µM | – | – | 0.0618 µM | > 100 µM | – | > 100 µM | > 100 µM | > 100 µM | > 100 µM | > 100 µM | 18.3 µM | 0.168 µM
CCCCCCCCCCCCCCCCc1c(C(=O)OC)[nH]c(=S)[nH]c1=O | – | > 50 µM | – | – | – | > 50 µM | – | – | – | > 50 µM | – | > 50 µM | – | > 50 µM | > 50 µM | > 50 µM | – | – | – | –
C=CC[Se]C(=O)c1ccccc1OC(C)=O | 1.88 µM | 3.49 µM | 3.08 µM | 11.6 µM | – | – | – | – | 1.52 µM | 3.56 µM | – | – | 1.94 µM | 4.09 µM | 3.11 µM | 3.9 µM | 6.44 µM | 1.7 µM | 2.62 µM | 1.87 µM
Cc1cc(=O)[nH]c(CNC(=O)c2cccc3ccccc23)n1 | – | > 100 µM | – | – | – | > 100 µM | – | – | – | > 100 µM | – | > 100 µM | – | > 100 µM | > 100 µM | > 100 µM | > 100 µM | – | – | –
CCOc1ccc(/C=N/Nc2cc(C)nc3ccc(Cl)cc23)cc1 | 1.57 µM | 3.03 µM | 1.82 µM | 3.38 µM | – | – | 1.83 µM | 3.38 µM | 2.34 µM | 5.19 µM | 1.66 µM | 3.06 µM | 1.72 µM | 3.09 µM | 3.64 µM | 4.02 µM | 3.62 µM | 1.93 µM | 1.85 µM | 1.97 µM
[Ce+3].[Cl-].[O-]/N=C(\c1ccccc1)c1ccccn1.[O-]/N=C(\c1ccccc1)c1ccccn1.[O-]/N=C(\c1ccccc1)c1ccccn1 | 47 µM | > 100 µM | – | – | 33.8 µM | > 100 µM | – | – | 37.9 µM | > 100 µM | 34.4 µM | 96.3 µM | 28.8 µM | 85.8 µM | > 100 µM | > 100 µM | 72 µM | 39.6 µM | 21.5 µM | 46.1 µM
